Source: paper PMC9358002, “Synthesis and Discovery of Ligustrazine–Heterocycle Derivatives as Antitumor Agents” (Frontiers in Chemistry, 2022)

Experiments:
Assay type in all cases: cell-based
[1] = test system: human breast cancer MCF-7; assay: MTT antiproliferative assay, MCF-7; details: Homo sapiens, MCF7, 48 h, 0–50 μM, read-out: Antiproliferative activity IC50 ± SEM, MCF-7
Experimental: (§1) The in vitro antiproliferative activity of 33 TMPH compounds was evaluated by MTT assay ([Medica et al., 2022]). Five types of TNBC-related cell lines (human breast cancer MCF-7 and MDA-MB-231, mouse breast cancer 4T1, mouse fibroblast L929, and human umbilical vein endothelial HUVEC cell lines) were used. The cell lines were obtained from the Shanghai Institute of Biochemistry and Cell Biology of the Chinese Academy of Sciences (Shanghai, China). The cell lines were cultured in DMEM supplemented with 1% penicillin–streptomycin solution (100×) and 10% FBS at 37°C under a humid atmosphere containing 5% CO2. After cell passage, cryopreservation, and resuscitation, the growth-inhibitory effects against the five cell lines were determined by MTT assay. The 33 TMPH compounds and the reference control drug cisplatin were dissolved in 0.1% DMSO solution. The cell lines were maintained in 96-well plates and subjected to each test compound (0–50 μM) at 37°C for 48 h. After treatment with 1 mg/ml MTT solution for 4 h, the formazan crystals were dissolved in each well. A microplate reader (Varioskan Flash 3001, Thermo Scientific) was used to determine the cell viability at 490 nm, and each experiment was repeated four times. The collected data were expressed as the mean ± SEM. The inhibitory concentration of the 34 compounds at 50% (IC50) was calculated via concentration–inhibition relationship regression by SPSS software.

[2] = test system: human umbilical vein endothelial HUVEC; assay: MTT antiproliferative assay, HUVEC; details: Homo sapiens, HUVEC, 48 h, 0–50 μM, read-out: Antiproliferative activity IC50 ± SEM, HUVEC
Experimental: as §1

[3] = test system: human breast cancer MDA-MB-231; assay: MTT antiproliferative assay, MDA-MB-231; details: for IC50: Homo sapiens, MDA-MB-231, MTT, 48 h, 0–50 μM, read-out: Antiproliferative activity IC50 ± SEM, MDA-MB-231; for SI, selectivity index: SI = IC50 (L929)/IC50 (MDA-MB-231)
Experimental: as §1

mouse breast cancer 4T1 = assay: MTT antiproliferative assay, 4T1; details: Mus musculus, 48 h, 0–50 μM, read-out: Antiproliferative activity IC50 ± SEM, 4T1
Experimental: as §1

mouse fibroblast L929 = assay: MTT antiproliferative assay, L929; details: Mus musculus, L929, 48 h, 0–50 μM, read-out: Antiproliferative activity IC50 ± SEM, L929
Experimental: as §1

[4] = test system: MCF-7, MDA-MB-231, 4T1, L929 and HUVEC cell lines; assay: MTT antiproliferative assay, statements over all five tested cell lines; details: range over all five tested cell lines, read-out: IC50 values ranging over the tested cell lines
Experimental: as §1

Q: How did the IC50 [1] turn out when `Cc1nc(C)c(C(=O)NCCCCCCCCNC(=O)c2cc3ccccc3s2)nc1C` [8–3] was run?
A: 4.15 ± 0.02 µM

Q: And the IC50 [2]?
A: 9.78 ± 0.05 µM

Q: What about the IC50 [3] of the same compound?
A: 3.39 ± 0.12 µM

Q: What about the “SI, selectivity index” value [3] of the same compound?
A: 1.22

Q: And the IC50 (mouse breast cancer 4T1)?
A: 19.5 ± 0.45 µM

Q: What about the IC50 (mouse fibroblast L929) of the same compound?
A: 4.12 ± 0.32 µM

Q: And the IC50 [4]?
A: 1.61 to 19.5 µM

Q: How did the IC50 [1] turn out when `Cc1nc(C)c(C(=O)NCCCCCCCCNC(=O)C=Cc2ccc(Cl)cc2)nc1C` [8–10] was run?
A: 2.84 ± 0.21 µM

Q: And the IC50 [2]?
A: 4.54 ± 0.01 µM

Q: What about the IC50 [3] of the same compound?
A: 6.67 ± 0.16 µM

Q: And the “SI, selectivity index” value [3]?
A: 0.82

Q: What about the IC50 (mouse breast cancer 4T1) of the same compound?
A: 2.48 ± 0.24 µM

Q: And the IC50 (mouse fibroblast L929)?
A: 5.48 ± 0.06 µM

Q: What about the IC50 [4] of the same compound?
A: 1.61 to 19.5 µM

Q: Which results are given for `Cc1nc(C)c(C(=O)NCCCCCCCCCCNC(=O)c2ccc3ncccc3c2)nc1C` [10–6]?
A: IC50 [1]: 6.49 ± 0.36 µM; IC50 [2]: 10.2 ± 0.86 µM; IC50 [3]: 7.76 ± 0.14 µM; SI, selectivity index [3]: 1.15; IC50 (mouse breast cancer 4T1): 12 ± 0.54 µM; IC50 (mouse fibroblast L929): 8.91 ± 0.12 µM; IC50 [4]: 1.61 to 19.5 µM

Q: What does the source list for `Cc1nc(C)c(C(=O)NCCCCCCCCCCNC(=O)c2ccc3cc[nH]c3c2)nc1C` [10–9]?
A: IC50 [1]: 3.37 ± 0.19 µM; IC50 [2]: 9.63 ± 0.53 µM; IC50 [3]: 6.01 ± 0.11 µM; SI, selectivity index [3]: 1.23; IC50 (mouse breast cancer 4T1): 3.12 ± 0.14 µM; IC50 (mouse fibroblast L929): 7.37 ± 0.57 µM; IC50 [4]: 1.61 to 19.5 µM

Q: With `COc1cc(C=CC(=O)NCCCCCCCCCCNC(=O)c2nc(C)c(C)nc2C)cc(OC)c1OC` [10–12] as the compound, how does the IC50 [1] read?
A: 2.86 ± 0.08 µM

Q: And the IC50 [2]?
A: > 20 µM

Q: What about the IC50 [3] of the same compound?
A: 3.41 ± 0.12 µM

Q: And the “SI, selectivity index” value [3]?
A: >5.87

Q: And the IC50 (mouse breast cancer 4T1)?
A: > 20 µM

Q: And the IC50 (mouse fibroblast L929)?
A: > 20 µM

Q: What does the source list for `Cc1nc(C)c(C(=O)NCCCCCCCCCCNC(=O)c2ccc3ccccc3c2)nc1C` [10–13]?
A: IC50 [1]: 3.09 ± 0.13 µM; IC50 [2]: 10.5 ± 1.24 µM; IC50 [3]: 4.6 ± 0.29 µM; SI, selectivity index [3]: 2.75; IC50 (mouse breast cancer 4T1): 9.88 ± 0.22 µM; IC50 (mouse fibroblast L929): 12.64 ± 0.12 µM; IC50 [4]: 1.61 to 19.5 µM

Q: Which IC50 [1] does the source give for `Cc1nc(C)c(C(=O)NCCCCCCCCCCCCNC(=O)C=Cc2ccccc2)nc1C` [12–1] here?
A: 1.95 ± 0.06 µM

Q: What about the IC50 [2] of the same compound?
A: 13.2 ± 1.12 µM

Q: What about the IC50 [3] of the same compound?
A: 2.78 ± 0.37 µM

Q: And the “SI, selectivity index” value [3]?
A: 1.71

Q: And the IC50 (mouse breast cancer 4T1)?
A: 2.66 ± 0.05 µM

Q: What about the IC50 (mouse fibroblast L929) of the same compound?
A: 4.75 ± 0.26 µM

Q: What about the IC50 [4] of the same compound?
A: 1.61 to 19.5 µM

Q: Which IC50 [1] does the source give for `Cc1nc(C)c(C(=O)NCCCCCCCCCCCCNC(=O)c2cc3ccccc3o2)nc1C` [12–2] here?
A: 2.71 ± 0.07 µM

Q: What about the IC50 [2] of the same compound?
A: 11 ± 0.68 µM

Q: What about the IC50 [3] of the same compound?
A: 3.38 ± 0.12 µM

Q: And the “SI, selectivity index” value [3]?
A: 1.12

Q: What about the IC50 (mouse breast cancer 4T1) of the same compound?
A: 3.97 ± 0.01 µM

Q: And the IC50 (mouse fibroblast L929)?
A: 3.78 ± 0.14 µM

Q: And the IC50 [4]?
A: 1.61 to 19.5 µM

Q: For `Cc1nc(C)c(C(=O)NCCCCCCCCCCCCNC(=O)c2cc3ccccc3s2)nc1C` [12–3], which IC50 [1] is on record?
A: 3.26 ± 0.16 µM

Q: What about the IC50 [2] of the same compound?
A: 7.86 ± 0.01 µM

Q: And the IC50 [3]?
A: 2.12 ± 0.06 µM

Q: What about the “SI, selectivity index” value [3] of the same compound?
A: 3.61

Q: And the IC50 (mouse breast cancer 4T1)?
A: 5.13 ± 0.28 µM

Q: And the IC50 (mouse fibroblast L929)?
A: 7.65 ± 0.06 µM

Q: What about the IC50 [4] of the same compound?
A: 1.61 to 19.5 µM
